Measured values published in PubChem BioAssay AID2743 (NMMLSC, 2010).
Activity calls are given as the source filed them.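 How the source made its calls: active means fitted half-maximal concentration for change in GFP expression of 33 µM or less; inactive means the rest.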

Assay: potency of AGP1-GFP expression modulators in yeast, dose response, cell-based, flow cytometry, S. cerevisiae, MLPCN hits (AID 2743)
Settings: S. cerevisiae AGP1-GFP strain, flow cytometry GFP, 3 h; at 33 µM (top of the series)

Compound	GFP fluorescence (kMESF)
COc1ccc(N2C(=O)C(Cl)=C(Nc3c(C)n(C)n(-c4ccccc4)c3=O)C2=O)cc1	36.2 kMESF (inactive)
CCN(CC)c1ccc(/C=C2/C(=O)c3ccc(C(=O)O)cc3C2=O)cc1	655 kMESF (inactive)
C/C(=N/NC(=O)c1ccc(C(C)(C)C)cc1)c1ccccn1	55.7 kMESF (inactive)
CC(Oc1cccc(Cl)c1)C(=O)Nc1nc(-c2ccccn2)cs1 (stereo not drawn)	50.7 kMESF (inactive)
O=C(Oc1oc(-c2ccco2)nc1C=Nc1ccc(Cl)cc1)c1ccco1	42 kMESF (inactive)
Cc1cccc(OCCN2CSC(=S)N(C)C2)c1	46.6 kMESF (inactive)
COC(CNC(=O)c1ccc2c3c(onc13)-c1ccccc1C2=O)OC	1.89 kMESF (inactive)
CC1=C(C)/C(=N\OS(=O)(=O)c2ccc(C)cc2)C=CC1=O	31.9 kMESF (inactive)
Cc1ccccc1OCCOC(=O)c1ccc(S(=O)(=O)N2CCCC2)cc1	38.1 kMESF (inactive)
O=[N+]([O-])c1cc(F)c2cccnc2c1O	43.3 kMESF (inactive)
COc1cc(/C=C2\C(=O)ON=C2c2ccc(Cl)cc2)ccc1O	33 kMESF (inactive)
Cc1ccc(S(=O)(=O)c2ncccc2[N+](=O)[O-])cc1	47.1 kMESF (inactive)
O=C1N(c2ccccc2C(F)(F)F)OC1(Cc1ccccc1)c1ccccc1 (stereo not drawn)	41.5 kMESF (inactive)
COc1ccc(C(=O)/C=C2/C(=O)Nc3ccccc32)c(OC)c1	43.2 kMESF (inactive)
Nc1ccccc1C#CC(=O)c1ccccc1	31.7 kMESF (inactive)
O=C1ON=C(c2ccc(Cl)cc2)/C1=C/c1ccc(O)cc1	23.3 kMESF (inactive)
O=C(Nc1ccc(N2CCOCC2)cc1)C1CCN(S(=O)(=O)c2ccc3c(c2)OCCO3)CC1	34 kMESF (inactive)
COc1cccc2cc(-c3nc4ccccc4o3)c(=O)oc12	20.9 kMESF (inactive)
O=C1C=CC(=O)N1c1ccc(Sc2ccc([N+](=O)[O-])cc2)cc1	38.7 kMESF (inactive)
O=c1c2cnn(-c3ccccc3)c2ncn1Cc1ccco1	29.6 kMESF (inactive)
CN(C)/C=C/C(=O)c1ccc(-c2ccc(Cl)cc2Cl)o1	27.8 kMESF (inactive)
O=[N+]([O-])c1ccc(S(=O)(=O)c2ccccc2)nc1	44.6 kMESF (inactive)

Compound	GFP fluorescence (kMESF)
O=C1C=CC(=O)N1N(c1ccccc1)c1ccccc1	37 kMESF (inactive)
COc1ccc(C(=O)NC(=S)NNC(=O)CCc2ccccc2)cc1	37.5 kMESF (inactive)
O=C1CCN(S(=O)(=O)c2ccccc2)CCN1CCOCc1ccc(F)cc1	33.5 kMESF (inactive)
Cc1c(NC2=C(Cl)C(=O)N(c3ccccc3)C2=O)c(=O)n(-c2ccccc2)n1C	41.3 kMESF (inactive)
CCn1c(/C=C/c2ccc([N+](=O)[O-])o2)nc2ccccc2c1=O	-51 kMESF (inactive)
CCc1ccc2c(c1)/C(=C/C(=O)c1cccs1)C(=O)N2	42.4 kMESF (inactive)
Cc1ccc(/C(N)=N/OC(=O)c2ccc(F)cc2)cc1	23.1 kMESF (inactive)
CC1(c2ccccc2)ON(c2ccccc2C(F)(F)F)C1=O (stereo not drawn)	29.4 kMESF (inactive)
CCC(=O)Oc1oc(-c2ccccc2)nc1C=Nc1ccc(C)cc1	41.9 kMESF (inactive)
CC(=O)CSc1ncnc2c1cnn2-c1ccccc1	38.5 kMESF (inactive)
CC(C)Oc1ccc(C(=O)/C=C2/C(=O)Nc3ccccc32)cc1	46.3 kMESF (inactive)
COc1cccc(N=Cc2nc(-c3ccccc3)oc2OC(C)=O)c1	35.9 kMESF (inactive)
CCCc1cc(=O)oc2cc(C)cc(OCC(=O)NC3CC3)c12	41 kMESF (inactive)
O=C(NC(=S)NNC(=O)c1cnccn1)c1ccc(Cl)cc1	37.6 kMESF (inactive)
CCN1/C(=C/C(C)=C/c2sc3ccccc3[n+]2CC)Sc2ccccc21	47.5 kMESF (inactive)
COc1cccc2c(=O)c(C(=O)NCc3cccs3)c[nH]c12	35.4 kMESF (inactive)
Cc1ccc(N/N=C(\C#N)C(N)=S)c(C)c1	38 kMESF (inactive)
COc1cc(NC(=O)c2cccc(C)c2)ccc1NC(=O)c1cc2ccccc2o1	44.2 kMESF (inactive)
CC(C)[C@@]1(c2ccccc2)ON(c2ccccc2C(F)(F)F)C1=O	37.1 kMESF (inactive)
CCCc1ccc(OCC(=O)NNC(=S)NC(=O)c2ccco2)cc1	38.1 kMESF (inactive)
Cc1cc(S(=O)(=O)ON2C(=O)c3ccccc3C2=O)ccc1F	43.2 kMESF (inactive)
CC(C)(C)n1nc(-c2ccc(Cl)cc2)c2c(N)ncnc21	39.9 kMESF (inactive)

Compound	GFP fluorescence (kMESF)
O=C(Nc1nnc(-c2ccc(Cl)cc2)o1)c1ccccc1Br	28.4 kMESF (inactive)
CC(C)Cn1c(=O)c(C(=O)Nc2ccncc2)c(O)c2ccccc21	16.1 kMESF (inactive)
O=C(/C=C/c1ccccc1[N+](=O)[O-])c1ccccc1Br	50.7 kMESF (inactive)
COc1ccc(C(=O)NNC(=S)NC(=O)/C=C/c2cccs2)cc1	52.8 kMESF (inactive)
CC1=NNC(=O)/C1=C\c1cn(-c2ccccc2)nc1-c1cccs1	37.3 kMESF (inactive)
O=c1oc2cc(Oc3c([N+](=O)[O-])cc(C(F)(F)F)cc3[N+](=O)[O-])ccc2c2c1CCCC2	40 kMESF (inactive)
COc1ccc(N2C(=O)C(Cl)=C(NCc3ccccc3)C2=O)cc1	40.6 kMESF (inactive)
CN(C)NC(=S)Nc1ccc(S(=O)(=O)N2CCCCC2)cc1	40.4 kMESF (inactive)
CCN(CC(=O)Nc1cc(S(=O)(=O)N2CCOCC2)ccc1Cl)Cc1ccccc1	37.6 kMESF (inactive)
COc1ccc([C@]2(C(C)C)ON(c3ccccc3C(F)(F)F)C2=O)cc1	38.8 kMESF (inactive)
Cc1ccc2c(nc3s/c(=C\c4ccc(-c5ccccc5C(=O)O)o4)c(=O)n32)c1C	49.9 kMESF (inactive)
O=C(Nc1ccc(NC(=O)c2cc3ccccc3o2)cc1)c1ccco1	44.8 kMESF (inactive)
O=C(c1ccc(C(=O)N2CCCc3ccccc32)s1)N1CCCc2ccccc21	38.6 kMESF (inactive)
C=C1C(O)[C@@H]2O[C@]3(CC[C@H](/C=C/C(C)[C@@H]4CC(C)=CC5(O[C@H](C[C@@](C)(O)C(=O)O)CCC5O)O4)O3)CC[C@H]2O[C@@H]1C(O)CC(C)[C@H]1OC2(CCCCO2)CCC1C (stereo partly drawn)	35.8 kMESF (inactive)
Cc1ccc(/C=c2\sc3nc(-c4cccs4)nn3c2=O)o1	42.1 kMESF (inactive)
Cc1ccccc1[C@@]1(C)ON(c2ccccc2C(F)(F)F)C1=O	29.8 kMESF (inactive)
O=c1oc(/C=C/c2ccc([N+](=O)[O-])s2)nc2ccccc12	37.9 kMESF (inactive)
N/C(=N\OC(=O)c1ccc(Cl)cc1Cl)c1ccccc1	27.3 kMESF (inactive)
C[C@H]1C[C@@H](C)C(=O)[C@@H]([C@H](O)CC2CC(=O)NC(=O)C2)C1	25.3 kMESF (inactive)
O=c1c2cc(Cl)ccc2nc(-c2ccc([N+](=O)[O-])cc2)n1O	23 kMESF (inactive)
O=C1NC(=O)N(c2ccccc2)C(=O)/C1=C/c1ccc(Sc2ccccc2)o1	35.9 kMESF (inactive)
CCOC(=O)c1c(C)oc2c1c(C(c1ccncc1)N1CCOCC1)c(O)c1ccccc12 (stereo not drawn)	21.4 kMESF (inactive)

Compound	GFP fluorescence (kMESF)
CC(=O)[C@]1(O)Cc2c(O)c3c(c(O)c2[C@@H](O[C@H]2C[C@H](N)[C@H](O)[C@H](C)O2)C1)C(=O)c1ccccc1C3=O	33.4 kMESF (inactive)
O=C(Nc1nnc(-c2ccc(F)cc2)o1)c1cccc([N+](=O)[O-])c1	44.5 kMESF (inactive)
O=C(/C=C/c1cccc([N+](=O)[O-])c1)c1ccc([N+](=O)[O-])o1	10.4 kMESF (inactive)
COc1cccc(N=Nc2ccc(O)c3ncccc23)c1	45.7 kMESF (inactive)
Nc1ccc2ccc3cccc[n+]3c2c1	42.9 kMESF (inactive)
COc1ccc(N2CCN(C(=O)c3ccccc3)CC2)c([N+](=O)[O-])c1	40.6 kMESF (inactive)
Cc1ccc(/C=C2/SC(=S)N(C3CCCCC3)C2=O)o1	41.3 kMESF (inactive)
O=C(COc1ccccc1)N1CCN(c2ncnc3c2cnn3-c2ccccc2)CC1	35.1 kMESF (inactive)
CC(=O)Oc1oc(-c2ccccc2)nc1C=Nc1ccccc1	33.5 kMESF (inactive)
CCOC(=O)c1ccc(N=Cc2nc(-c3ccccc3)oc2OC(C)=O)cc1	33.5 kMESF (inactive)
COc1ccc(-c2cc(C(F)(F)F)nc(S(C)(=O)=O)n2)cc1	36 kMESF (inactive)
O=C(Nc1nnc(-c2ccc3c(c2)CCCC3)o1)c1ccc(Cl)cc1Cl	20.9 kMESF (inactive)
N/C(Cc1ccc(Cl)cc1)=N\OC(=O)c1cccc2ccccc12	33 kMESF (inactive)
COc1ccc(OCC(=O)NNC(=S)NC(=O)C2CCCCC2)cc1	35.6 kMESF (inactive)
CCCCNc1c2c3c(cccc3n(C)c1=O)C(=O)c1ccccc1-2	36.3 kMESF (inactive)
COc1ccc2c(c1)S/C(=C\C(=O)c1ccncc1)N2C	17.8 kMESF (inactive)
Cc1ccc(C(=O)Oc2oc(-c3ccco3)nc2C=Nc2ccc(Cl)cc2)cc1	35 kMESF (inactive)
Cc1ccc2[nH]cc(/C=C/c3cc[n+](C)cc3)c2c1	48.3 kMESF (inactive)
O=C(Oc1c(Cl)cc(Cl)c2cccnc12)c1cccs1	25.9 kMESF (inactive)
Cc1ccc(N=Nc2ccc(O)c3ncccc23)cc1	35.1 kMESF (inactive)
O=C1NC(=O)C(=Cc2ccc(-c3ccc(Cl)cc3)o2)C(=O)N1	22.3 kMESF (inactive)
CSC1=NS(=O)(=O)c2c(C)nn(C)c2S1	45.6 kMESF (inactive)
